Data published in PubChem BioAssay AID248 (DTP/NCI, 2004).
Inconclusive results and toxic doses are left out. Cut-off read from the data, not from the text of the source: active = T/C of 150% or more; inactive = T/C below 125%.

System: L1210 leukemia ip in BDF1 mice, survival T/C
Assay: NCI In Vivo Anticancer Drug Screen. Data for tumor model L1210 Leukemia (intraperitoneal) in B6D2F1 (BDF1) mice
Details: endpoint: mean survival time, higher = longer survival
Outline: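 Antitumor effect is assessed in tumor-bearing animals. Survival in the compound arm is compared with a vehicle-dosed control arm and expressed as their quotient.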

[1] = dose: 100.0 mg/kg/injection, schedule: Q04DX003 (ip), vehicle: saline
[2] = dose: 200.0 mg/kg/injection, schedule: Q04DX003 (ip), vehicle: saline
[3] = dose: 400.0 mg/kg/injection, schedule: Q04DX003 (ip), vehicle: saline
[4] = dose: 100.0 mg/kg/injection, schedule: Q01DX001 (ip), vehicle: Klucel (hydroxypropylcellulose) (HPC)
[5] = dose: 200.0 mg/kg/injection, schedule: Q01DX001 (ip), vehicle: Klucel (hydroxypropylcellulose) (HPC)
[6] = dose: 400.0 mg/kg/injection, schedule: Q01DX001 (ip), vehicle: Klucel (hydroxypropylcellulose) (HPC)
[7] = dose: 100.0 mg/kg/injection, schedule: Q01DX001 (ip), vehicle: saline
[8] = dose: 200.0 mg/kg/injection, schedule: Q01DX001 (ip), vehicle: saline
[9] = dose: 50.0 mg/kg/injection, schedule: Q01DX001 (ip), vehicle: saline
[10] = dose: 400.0 mg/kg/injection, schedule: Q01DX001 (ip), vehicle: saline
[11] = dose: 100.0 mg/kg/injection, schedule: Q04DX003 (ip), vehicle: Klucel (hydroxypropylcellulose) (HPC)
[12] = dose: 200.0 mg/kg/injection, schedule: Q04DX003 (ip), vehicle: Klucel (hydroxypropylcellulose) (HPC)
[13] = dose: 400.0 mg/kg/injection, schedule: Q04DX003 (ip), vehicle: Klucel (hydroxypropylcellulose) (HPC)
[14] = dose: 100.0 mg/kg/injection, schedule: Q01DX009 (ip), vehicle: Klucel (hydroxypropylcellulose) (HPC)
[15] = dose: 200.0 mg/kg/injection, schedule: Q01DX009 (ip), vehicle: Klucel (hydroxypropylcellulose) (HPC)
[16] = dose: 400.0 mg/kg/injection, schedule: Q01DX009 (ip), vehicle: Klucel (hydroxypropylcellulose) (HPC)
[17] = dose: 50.0 mg/kg/injection, schedule: Q01DX009 (ip), vehicle: Klucel (hydroxypropylcellulose) (HPC)

Measured: T/C

O=C1CC(NC(=O)OCc2ccccc2)C(=O)O1 (stereo not drawn)
inactive: dose: 100.0 mg/kg/injection, schedule: Q01DX009 (ip), vehicle: saline with Tween-80 96 % of control | [1] 103 % of control | dose: 200.0 mg/kg/injection, schedule: Q01DX009 (ip), vehicle: saline with Tween-80 93 % of control | [2] 97 % of control | dose: 400.0 mg/kg/injection, schedule: Q01DX009 (ip), vehicle: saline with Tween-80 94 % of control | [3] 95 % of control

CCN(CC)C(=O)/C=C/C(=O)N(CC)CC
inactive: [1] 103 % of control | [2] 100 % of control | [3] 100 % of control

CC(=O)OCC1OC(OC(C)=O)C(O)C(OC(C)=O)C1OC(C)=O (stereo not drawn)
inactive: [4] 113 % of control | [5] 102 % of control | [6] 117 % of control

C[C@]12CC[C@@H]3c4ccc(O)cc4CC[C@H]3[C@@H]1CC[C@@H]2OC(=O)CCC1CCCC1
inactive: dose: 60.0 mg/kg/injection, schedule: Q04DX003 (sc), vehicle: steriod suspending solution 104 % of control | dose: 100.0 mg/kg/injection, schedule: Q01DX001 (sc), vehicle: steriod suspending solution 107 % of control | dose: 120.0 mg/kg/injection, schedule: Q04DX003 (sc), vehicle: steriod suspending solution 104 % of control | dose: 200.0 mg/kg/injection, schedule: Q01DX001 (sc), vehicle: steriod suspending solution 113 % of control | dose: 240.0 mg/kg/injection, schedule: Q04DX003 (sc), vehicle: steriod suspending solution 100 % of control | dose: 400.0 mg/kg/injection, schedule: Q01DX001 (sc), vehicle: steriod suspending solution 107 % of control

Nc1ncnc2c1ncn2[C@H]1CC[C@@H](CO)C1
inactive: [7] 106 % of control | [8] 97 % of control

c1cc[c]([Sn]([O]B([O][Sn]([c]2ccccc2)([c]2ccccc2)[c]2ccccc2)[O][Sn]([c]2ccccc2)([c]2ccccc2)[c]2ccccc2)([c]2ccccc2)[c]2ccccc2)cc1
inactive: dose: 5.0 mg/kg/injection, schedule: Q04DX002 (ip), vehicle: saline with Tween-80 101 % of control | dose: 10.0 mg/kg/injection, schedule: Q04DX002 (ip), vehicle: saline with Tween-80 104 % of control | dose: 20.0 mg/kg/injection, schedule: Q04DX002 (ip), vehicle: saline with Tween-80 101 % of control

C1CCN2CC3CC(CN4CCCCC34)C2C1 (stereo not drawn)
inactive: dose: 10.0 mg/kg/injection, schedule: Q01DX009 (ip), vehicle: saline 104 % of control | dose: 20.0 mg/kg/injection, schedule: Q01DX009 (ip), vehicle: saline 102 % of control | dose: 20.0 mg/kg/injection, schedule: Q04DX003 (ip), vehicle: saline 100 % of control | dose: 40.0 mg/kg/injection, schedule: Q01DX009 (ip), vehicle: saline 100 % of control | dose: 40.0 mg/kg/injection, schedule: Q04DX003 (ip), vehicle: saline 96 % of control

CCOC(=O)c1ccc([N+](=O)[O-])s1
inactive: [1] 100 % of control | [2] 97 % of control | [3] 111 % of control

O=[N+]([O-])c1ccc2c(c1)/C(=C1/c3cc(Br)ccc3-c3ccc([N+](=O)[O-])cc31)c1cc(Br)ccc1-2
inactive: dose: 100.0 mg/kg/injection, schedule: Q04DX003 (ip), vehicle: saline with Tween-80 87 % of control | dose: 200.0 mg/kg/injection, schedule: Q04DX003 (ip), vehicle: saline with Tween-80 97 % of control | dose: 400.0 mg/kg/injection, schedule: Q04DX003 (ip), vehicle: saline with Tween-80 92 % of control

C1=C(N2CCCCC2)C2CCC1C2 (stereo not drawn)
inactive: dose: 75.0 mg/kg/injection, schedule: Q01DX001 (ip), vehicle: saline 99 % of control

Cc1ncc(CO)c(/C=N\OCc2cccc(Cl)c2)c1O
inactive: dose: 12.5 mg/kg/injection, schedule: Q01DX009 (ip), vehicle: saline 100 % of control | dose: 25.0 mg/kg/injection, schedule: Q01DX009 (ip), vehicle: saline 100 % of control

COc1ccc(CN2CCCN(Cc3ccc(OC)cc3OC)C2c2ccncc2)c(OC)c1
inactive: [9] 94 % of control | [7] 97 % of control | [8] 105 % of control | [10] 103 % of control

c1ccc2nc3c(nc2c1)[nH]c1ccccc13
inactive: dose: 62.5 mg/kg/injection, schedule: Q01DX Z (ip), vehicle: carboxymethylcellulose (CMC) 94 % of control | dose: 125.0 mg/kg/injection, schedule: Q01DX Z (ip), vehicle: carboxymethylcellulose (CMC) 100 % of control | dose: 250.0 mg/kg/injection, schedule: Q01DX Z (ip), vehicle: carboxymethylcellulose (CMC) 95 % of control | dose: 500.0 mg/kg/injection, schedule: Q01DX Z (ip), vehicle: carboxymethylcellulose (CMC) 91 % of control

CCC[CH2][Sn]([CH2]CCC)([O]S(C)(=O)=O)[O]S(C)(=O)=O
inactive: dose: 1.56 mg/kg/injection, schedule: Q01DX009 (ip), vehicle: Klucel (hydroxypropylcellulose) (HPC) 105 % of control | dose: 3.12 mg/kg/injection, schedule: Q01DX009 (ip), vehicle: Klucel (hydroxypropylcellulose) (HPC) 105 % of control

CCOC(=O)CC(SP(=S)(Oc1ccccc1)Oc1ccccc1)C(=O)OCC (stereo not drawn)
inactive: dose: 100.0 mg/kg/injection, schedule: Q04DX002 (sc), vehicle: olive oil, sesame oil, peanut oil 100 % of control | dose: 200.0 mg/kg/injection, schedule: Q04DX002 (sc), vehicle: olive oil, sesame oil, peanut oil 103 % of control | dose: 400.0 mg/kg/injection, schedule: Q04DX002 (sc), vehicle: olive oil, sesame oil, peanut oil 93 % of control

Cc1cc(OCCCC(=O)O)ccc1Cl
inactive: [9] 104 % of control | [7] 104 % of control | [8] 102 % of control | [10] 96 % of control

O=C(O)CC1CC=CCC1CC(=O)O (stereo not drawn)
inactive: dose: 100.0 mg/kg/injection, schedule: Q01DX009 (ip), vehicle: saline sonified 95 % of control | dose: 200.0 mg/kg/injection, schedule: Q01DX009 (ip), vehicle: saline sonified 101 % of control | dose: 400.0 mg/kg/injection, schedule: Q01DX009 (ip), vehicle: saline sonified 104 % of control

Cc1ccc2ccccc2c1NCCC(=O)O
inactive: [4] 101 % of control | [11] 104 % of control | [5] 100 % of control | [12] 98 % of control | [6] 91 % of control | [13] 102 % of control

CCC(C#N)c1ccccc1 (stereo not drawn)
inactive: [14] 103 % of control | [11] 110 % of control | [15] 92 % of control | [12] 119 % of control | [16] 103 % of control | [13] 96 % of control

O=C(Nc1ccc([N+](=O)[O-])cc1)OCC#CC#CCOC(=O)Nc1ccc([N+](=O)[O-])cc1
inactive: [17] 104 % of control | [14] 100 % of control | [15] 86 % of control

CC(C)c1ccc(/C=C(\C(=O)O)c2cccc3ccccc23)cc1
inactive: [14] 101 % of control

CC1C(=O)OC(C)(C)OC1=O
inactive: dose: 25.0 mg/kg/injection, schedule: Q01DX009 (ip), vehicle: Klucel (hydroxypropylcellulose) (HPC) 99 % of control | [17] 100 % of control | [14] 98 % of control | [15] 94 % of control | [16] 103 % of control
